Key:
ERβ = molecular target: T1, ERβ (Homo sapiens, UniProt Q92731); experiment: fluorescence polarization competition binding assay
T1 construct: gene ESR2; recombinant

ERα = molecular target: T2, ERα (Homo sapiens, UniProt P03372); experiment: as above
T2 construct: gene ESR1; recombinant
T2 sequence (P03372 1-595): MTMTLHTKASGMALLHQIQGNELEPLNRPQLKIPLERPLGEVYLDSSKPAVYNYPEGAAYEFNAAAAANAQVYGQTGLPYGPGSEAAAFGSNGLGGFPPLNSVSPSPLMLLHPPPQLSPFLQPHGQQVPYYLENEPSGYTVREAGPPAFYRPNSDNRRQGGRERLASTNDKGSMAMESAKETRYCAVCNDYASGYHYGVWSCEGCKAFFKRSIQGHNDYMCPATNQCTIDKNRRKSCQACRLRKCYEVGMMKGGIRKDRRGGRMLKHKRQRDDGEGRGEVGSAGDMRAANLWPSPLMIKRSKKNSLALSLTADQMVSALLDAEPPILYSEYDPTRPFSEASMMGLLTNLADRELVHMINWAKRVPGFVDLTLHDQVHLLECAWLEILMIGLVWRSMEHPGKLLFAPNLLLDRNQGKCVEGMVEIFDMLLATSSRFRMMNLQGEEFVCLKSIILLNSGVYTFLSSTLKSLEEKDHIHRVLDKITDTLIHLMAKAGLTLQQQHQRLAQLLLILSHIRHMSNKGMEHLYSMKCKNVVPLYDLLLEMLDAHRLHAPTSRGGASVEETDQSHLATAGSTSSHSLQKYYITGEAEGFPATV

T1 sequence (Q92731 whole entry): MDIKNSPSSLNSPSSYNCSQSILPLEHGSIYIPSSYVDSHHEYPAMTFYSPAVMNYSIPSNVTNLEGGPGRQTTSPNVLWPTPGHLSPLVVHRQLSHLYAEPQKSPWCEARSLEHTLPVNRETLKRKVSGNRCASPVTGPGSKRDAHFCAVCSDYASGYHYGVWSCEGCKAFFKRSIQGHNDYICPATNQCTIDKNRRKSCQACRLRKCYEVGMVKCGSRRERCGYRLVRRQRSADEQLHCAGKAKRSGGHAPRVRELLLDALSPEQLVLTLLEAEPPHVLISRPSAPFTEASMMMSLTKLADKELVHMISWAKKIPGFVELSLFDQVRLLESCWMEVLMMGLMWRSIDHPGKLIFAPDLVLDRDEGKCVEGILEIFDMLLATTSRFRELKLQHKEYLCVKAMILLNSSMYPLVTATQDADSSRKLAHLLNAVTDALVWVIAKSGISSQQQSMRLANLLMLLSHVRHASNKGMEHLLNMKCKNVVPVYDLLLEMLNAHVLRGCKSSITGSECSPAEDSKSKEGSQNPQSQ

COc1ccc([C@@H](C)C(=O)c2ccc(O)cc2O)cc1 [angolensin, 1-(2,4-dihydroxyphenyl)-2-(4-methoxyphenyl)propan-1-one]
IC50 (ERβ): 4.7 µM | IC50 (ERα): 2.2 µM

O=c1cc(-c2ccc(O)cc2)oc2cc(O[C@@H]3O[C@H](CO)[C@@H](O)[C@H](O)[C@H]3O)cc(O)c12 [cosmosiin, 5-hydroxy-2-(4-hydroxyphenyl)-7-[(2S,3R,4S,5S,6R)-3,4,5-trihydroxy-6-(hydroxymethyl)oxan-2-yl]oxychromen-4-one]
IC50 (ERβ): 3.3 µM | IC50 (ERα): 15.9 µM

Reference: publication PMC3274540 (PLoS ONE, 2012)
